Laboratory results from PMC7934871 (JCI Insight, 2021).

How the values were obtained:
pY705-STAT3 = assay: Western blotting of p-STAT3 in HCT116 cells; assay type: cell-based, human; conditions: HCT116, 1 µM, 48 hours
From the text: Figure 3 PS-acet.-STAT3 peptide inhibits STAT3 activity and downregulates the expression of STAT3 targets. (A) Downregulation of STAT3 activity and its downstream target proteins shown in human HCT116 colorectal cancer cells by Western blotting (data represent 1 of the 3 experiments, n = 3). PO-acet.-STAT3 and PS-STAT3-K685R peptides were used in parallel as controls. (B) STAT3 inhibition regulated the expression of proliferation and apoptotic genes, assessed by real-time quantitative PCR. Data present mean ± SD, n = 3 independent experiments, 1-way ANOVA; ***P < 0.005; **P < 0.01. […] For p53 promoter assay, data represent 3 replicates in 3 independent experiments (n = 9). For cell proliferation assay, data represent 3 independent experiments. SD is shown (n = 3). One-way ANOVA; ***P < 0.005; **P < 0.01.
Whole cell lysates or tissue homogenates were prepared by using RIPA lysis buffer (50 mM Tris at pH 7.4, 150 mM NaCl, 1 mM EDTA, 0.5% NP-40, 1 mM NaF, 15% glycerol, and 20 mM β-glycerophosphate). A protease inhibitor cocktail (Mini Protease Inhibitor Cocktail; Roche) and a tyrosine phosphatase inhibitor, sodium orthovanadate (Na3VO4, 1 mM), were added freshly to the lysis buffer. Protein amounts were determined by BCA using a Thermo Fisher Scientific kit. Normalized protein amounts were subjected to an SDS-PAGE and transferred onto a nitrocellulose membrane for Western blotting. […] The protein levels for STAT1 (sc-346, E-23), STAT3 (sc-482, C-20), STAT5 (sc-74442, A-9), Crm1 (exportin 1) (sc-5595, H-300), CAS (exportin 2) (sc-271537, H-2), exportin 5 (sc-66885, H-300), and exportin 7 (sc-98639, H-82) were determined using antibodies from Santa Cruz Biotechnology Inc. Anti–exportin 3 (exportin T, 630622, LOS1 05-1525), anti–exportin 4 (3499-1), and anti–exportin 6 (11408-1-AP) were from MilliporeSigma, Epitomics, and Proteintech, respectively. […]
(§1) Supplemental Figure 4 (related to Figure 1). […] Phosphorylation of STAT3 at Y705 and STAT5 at Y694 was detected by Western blotting after 48 hours treatment of PS-acet.-STAT3 peptide (1 µM) or napabucasin (1 µM) in HCT116 cells. […]

pY694-STAT5 = assay: Western blotting of p-STAT5 in HCT116 cells; assay type: cell-based, human; conditions: HCT116, 1 µM, 48 hours
Description: Whole cell lysates or tissue homogenates were prepared by using RIPA lysis buffer (50 mM Tris at pH 7.4, 150 mM NaCl, 1 mM EDTA, 0.5% NP-40, 1 mM NaF, 15% glycerol, and 20 mM β-glycerophosphate). A protease inhibitor cocktail (Mini Protease Inhibitor Cocktail; Roche) and a tyrosine phosphatase inhibitor, sodium orthovanadate (Na3VO4, 1 mM), were added freshly to the lysis buffer. Protein amounts were determined by BCA using a Thermo Fisher Scientific kit. Normalized protein amounts were subjected to an SDS-PAGE and transferred onto a nitrocellulose membrane for Western blotting. Proteins were visualized with a chemiluminescent detection kit (Pierce, Thermo Fisher Scientific). The protein levels for STAT1 (sc-346, E-23), STAT3 (sc-482, C-20), STAT5 (sc-74442, A-9), Crm1 (exportin 1) (sc-5595, H-300), CAS (exportin 2) (sc-271537, H-2), exportin 5 (sc-66885, H-300), and exportin 7 (sc-98639, H-82) were determined using antibodies from Santa Cruz Biotechnology Inc. Anti–exportin 3 (exportin T, 630622, LOS1 05-1525), anti–exportin 4 (3499-1), and anti–exportin 6 (11408-1-AP) were from MilliporeSigma, Epitomics, and Proteintech, respectively. […]
as §1

HCT116 xenograft tumors = assay: HCT116 xenograft in NSG mice, peritumoral treatment; assay type: in vivo, mouse; conditions: HCT116 s.c. in NSG mice, 1 mg/kg peritumoral every day, n = 4
Description: Mouse care and experimental procedures were performed under pathogen-free conditions in accordance with established institutional guidance and approved IACUC protocols from Research Animal Care Committee of the City of Hope. For s.c. tumor challenge, 5 × 10^6 HCT116 cells were injected into NSG mice from The Jackson Laboratory or animal resource core facility at the City of Hope. After tumors reached an average size of 80~100 mm^3, mice were locally or intravenously treated with 1 mg/kg of PO- or PS-peptides (Anaspec) every day or every other day. Control animals were treated with the equal volume of HBSS (Invitrogen, Thermo Fisher Scientific). Tumor growth was measured by a digital caliper every other day. […] Lungs were then analyzed for immune responses by immunostaining followed by confocal imaging. […] Tumor growth was measured by a digital caliper every other day. […]
(B) PS-acet.-STAT3 peptide downregulates STAT3 phosphorylation, assessed by Western blotting using tumor homogenates prepared from tumors shown in A.
(C) mRNA levels for CASP9, BIRC5 and BCL2L1 in the same tumor tissues described above were assessed by qRT-PCR. […]
(D) Treatments with PS-acet.-STAT3 peptide induced cell death, indicated by H&E staining (upper panel). […] Right panels represent quantification of Ki-67 protein levels and mean of vessel diameter (data include 5 fields of view per group). […]

B16 melanoma = B16 melanoma lung metastasis in C57BL/6 mice; assay type: in vivo, mouse; conditions: B16 i.v. in C57BL/6 mice, 1 mg/kg i.v. every other day, gp100 staining, n = 5
From the text: Figure 7 PS-acet.-STAT3 peptide treatment efficiently reduces mouse melanoma lung metastasis. (A) Systemic PS-acet.-STAT3 peptide treatment reduces B16 lung nodules in syngeneic mouse model compared with control treatments. The B16 lung nodules in mice treated with the indicated STAT3 peptides and vehicle (n = 5) were visualized by IF staining of gp100 and quantified by confocal microscopy and Zen software. The levels of phosphorylation of STAT3 (p-STAT3), CD69, and Foxp3 in the tumor or tumor-infiltrating CD8^+ T or CD4^+ T cells were detected by IF staining followed by confocal microscopy in B16 metastatic lung nodules upon treatments with vehicle, PO- or PS-acet.-STAT3, PS-STAT3-K685R, or PS-unacet.-STAT3 peptides as indicated. Images are representative of 5 lungs per experimental group. Scale bars: 20 μm (CD69, CD8, CD4, p-STAT3, and Foxp3) and 100 μm (gp100). White arrows indicate the immune cells. Insets: original magnification, ×40. (B) The graphs show the quantification of gp100 and p-STAT3 expression levels (MFI) or the cell population (%) of CD69^+ in CD8^+ or p-STAT3^+ in CD4^+ or Foxp3^+ in CD4^+ (data represent 5 lungs per group, n = 5). SD is shown. One-way ANOVA; ****P < 0.001.
Mouse care and experimental procedures were performed under pathogen-free conditions in accordance with established institutional guidance and approved IACUC protocols from Research Animal Care Committee of the City of Hope. For s.c. tumor challenge, 5 × 10^6 HCT116 cells were injected into NSG mice from The Jackson Laboratory or animal resource core facility at the City of Hope. After tumors reached an average size of 80~100 mm^3, mice were locally or intravenously treated with 1 mg/kg of PO- or PS-peptides (Anaspec) every day or every other day. Control animals were treated with the equal volume of HBSS (Invitrogen, Thermo Fisher Scientific). Tumor growth was measured by a digital caliper every other day. To study the effects of the modified peptides at protein and gene levels, mice were euthanized 4–6 weeks after tumor injection. B16 melanoma lung metastasis was performed by injecting 0.5 × 10^6 B16 cells into bloodstream of C57BL/6 mice (The Jackson Laboratory). One day after tumor challenge, mice were treated intravenously (retro-orbitally) with 1 mg/kg of PO- or PS-acet.-STAT3, PS-unacet.-STAT3, or PS-STAT3-K685R peptides every other day until the endpoint as indicated. Control mice were treated with HBSS. Lungs were excised from the mice, and B16 nodules were visualized by gp100 staining. Lungs were then analyzed for immune responses by immunostaining followed by confocal imaging. For mouse PDAC model, 5 × 10^6 KPC mouse cells were mixed with Matrigel and subcutaneously injected into C57BL/6 mice (The Jackson Laboratory). After tumors reached an average size of 80~100 mm^3, mice were intravenously treated with 1 mg/kg of PO- or PS-Gp130, PS-oligo, PS-SC-MYC, PS-MYC. or combined PS-Gp130/PS-MYC (0.5 mg/kg, 0.5 mg/kg) (Anaspec) every other day for 18 days. Control animals were treated with the equal volume of HBSS (Invitrogen, Thermo Fisher Scientific). Tumor growth was measured by a digital caliper every other day. To study the effects of the modified peptides at protein and gene levels, mice were euthanized at the endpoint as indicated.

[1] = Systemic toxicity in mice; assay type: in vivo; conditions: 1 mg/kg i.v. every other day for 3 weeks, n = 3
Description: To evaluate the potential toxicity associated with systemic treatments of PS-peptide, PS-acet.-STAT3 peptide, PS-oligo, naive peptide, and PO- or PS-acet.-STAT3 peptide were given to the mice at 1 mg/kg through i.v. every other day for 3 weeks.
Supplemental Figure 10 (related to Figure 3). The systemic toxicity of PS-acet.-peptide.
The bodyweight (A), blood count (B) and organ morphology (H&E staining; spleen, kidney and liver) (C) of the mice (n=3) treated with HBSS (1), PS-oligo (2), naïve peptide (3), PO-peptide (4) or PS-peptide (5) every other day at 1 mg/kg (per treatment) for 3 weeks.
Individual value of each mouse is shown as a dot on the graph. The red lines on each graph in (B) indicate the normal ranges. Blood count was done by a veterinary hematology analyzer. The images shown in (C) are the represented H&E section from three mice (n=3). Enlarged view are shown below as indicated. Scale bar, 50 µm.
Aftabizadeh and Li et al., Figure S10

Row | Molecule | phosphorylated STAT3 (p-STAT3, Y705) level (pY705-STAT3) | p-STAT5 (Y694) level (pY694-STAT5) | tumor growth (HCT116 xenograft tumors) | metastatic lung nodules (B16 melanoma) | behavior, body weight, blood counts [1] | morphology and cell death in liver, spleen, kidney tissues (H&E) [1]
1 | CC(=O)c1cc2c(o1)C(=O)c1ccccc1C2=O [napabucasin, reference compound] | inhibited | inhibited | – | – | – | –
2 | PDIPKEEAFGK685(Ac)YCRPESQEHPC-linker-TCCATGAGCTTCCTGATGCT [PO-acet.-STAT3 peptide] | – | – | not | few antitumor effects | No behavior changes, body weight loss, or abnormal blood counts | no significant morphology change or cell death
